Reference: patent US5922717A, “Piperazine derivatives, medicaments comprising these compounds, their use and processes for their preparation” (priority 1994, dated 1999)
Structures can show the parent of a compound that is named as a salt.

Tests used:
human platelets = assay: Inhibition of the binding of 3H-BIBU 52 to human platelets (fibrinogen binding test); conditions: 3H-BIBU 52 5 nM, human platelets in plasma, room temperature, 20 minutes
Protocol: 1. Inhibition of the Binding of ^3 H-BIBU 52 to Human Platelets:
A suspension of human platelets in plasma is incubated with ^3 H-BIBU 52 [=(3S,5S)-5-[(4'-amidino-4-biphenylyl)-oxymethyl]-3-[(carboxyl)methyl]-2-pyrrolidinone[3-^3 H-4-biphenylyl]], which replaces the ligand ^125 I-fibrinogen known from the literature, (see DE-A-4,214-245) and varius concentrations of the substance to be tested. The free and bound ligand are separated by centrigation and determined quantitatively by scintillation counting. The inhibition of ^3 H-BIBU 52 binding by the test substance is determined from the measurement values.
For this, donor blood is withdrawn form an anticubital vein and anticoagulated with trisodium citrate (final concentration 13 mM). The blood is centriged at 170×g for 10 minutes and the supernatant platelet-rich plasma (PRP) is removed. The residual blood is centriged off under severe conditions once more to isolate the plasma. The PRP is diluted 1:10 with autologous plasma. 750 μl are incubated with 50 μl of physiological saline solution, 100 μl of test substance solution, 50 μl of 14C-sucrose (3,700 Bq) and 50 μl of ^3 H-BIBU 52 (final centration: 5 nM) at room temperature for 20 minutes. To measure the non-specific binding, 100 μl of BIBU 52 (final concentration: […]) are employed instead of the test substance. The samples are centrifuged at 10,000×g for 20 seconds and the supernatant is removed. 100 μl of this are measured for determination of the free ligand. The pellet is dissolved in 500 μl of 0.2N NaOH, […] of scintillator and 25 μl of 5N HCl are added to 450 μl and the sample is measured. The residual plasma which still remains in the pellet is determined from the ^14 C content and the bound ligand is determined from the ^3 H measurement. After subtraction of the non-specific binding, the pellet activity is plotted against the concentration f the test substance and the concentration for 50% inhibition of binding is determined.

Platelet aggregation = assay: Inhibition of collagen-induced platelet aggregation (method of Born and Cross) in platelet-rich plasma; type: cell-based, human (healthy test persons); conditions: 10 minutes at 37° C., 50% change in optical density
Protocol: 2. Antithrombotic Action: Method Platelet aggregation is measured in platelet-rich plasma of healthy test persons by the method of Born and Cross (J. Physiol. 170, 397 (1964)). To inhibit coagulation, 3.14% sodium citrate is added to the blood in a volume ratio of 1:10. Collagen-induced aggregation The course of the decrease in the optical density of the platelet suspension after addition of the substance which induces aggregation is measured and recorded photometrically. The rate of aggregation is concluded from the angle of inclination of the density curve. The point on the curve at which the highest light transmission exists is used to calculate the "optical density". The amount of collagen is as low as possible, but is enough to result in a reaction curve which proceeds irreversibly. Commercially available collagen from Hormonchemie, Munich is used. Before addition of the collagen, the plasma is incubated with the substance for in each case 10 minutes at 37° C. An EC50 which is based on a 50% change in "optical density" in the sense of inhibition of aggregation is determined graphically from the measurement figures obtained.

[1] = set-up: species or system mice; conditions: mouse, in vivo, iv, 200 mg/kg

**Q.** With `CC(C)OC(=O)COc1ccc(NC(=O)N2CCN(C3CCNCC3)CC2)cc1` [4(6), Isopropyl [4-[[4-(4-piperidinyl)-piperazin-1-yl]carbonylamino]-phenoxy]acetate dihydrochloride] as the compound, how does the IC50 (human platelets) read?
**A.** 13000 nM

**Q.** And the EC50 (Platelet aggregation; Homo sapiens, 10 min)?
**A.** 280 nM

**Q.** For `CCOC(=O)COc1ccc(NC(=O)N2CCN(C3CCNCC3)CC2)cc1` [4(13), Ethyl [4-[[4-(4-piperidinyl)-piperazin-1-yl]carbonylamino]-phenoxy]acetate dihydrochloride], which IC50 (human platelets) is on record?
**A.** 310 nM

**Q.** And the EC50 (Platelet aggregation; Homo sapiens, 10 min)?
**A.** 130 nM

**Q.** What does the source list for `O=C(O)CC[C@H]1CC[C@H](NC(=O)N2CCN(C3CCNCC3)CC2)CC1` [Example 1(1), [3-[4-trans-[4-(4-Piperidinyl)-piperazin-1-yl]carbonylamino]cyclohexyl]propionic acid dihydrochloride]?
**A.** IC50 (human platelets): 76 nM; EC50 (Platelet aggregation; Homo sapiens, 10 min): 95 nM

**Q.** Which IC50 (human platelets) does the source give for `O=C(O)CCCC1CCN(C(=O)N2CCN(C3CCNCC3)CC2)CC1` [Example 1(13), N-[[4-(4-Piperidinyl)-piperazin-1-yl]-carbonyl]-4-(4-piperidinyl)-butyric acid dihydrochloride] here?
**A.** 270 nM

**Q.** And the EC50 (Platelet aggregation; Homo sapiens, 10 min)?
**A.** 320 nM

**Q.** Which IC50 (human platelets) does the source give for `O=C(O)COc1ccc(C(=O)CN2CCN(C3CCNCC3)CC2)cc1` [Example 1(19), [4-[[4-(4-Piperidinyl)-piperazin-1-yl]acetyl]phenoxyl-acetic acid trihydrochloride] here?
**A.** 200 nM

**Q.** And the EC50 (Platelet aggregation; Homo sapiens, 10 min)?
**A.** 390 nM

**Q.** With `O=C(O)COc1ccc(NC(=O)N2CCN(C3CCNCC3)CC2)cc1` [Example 1(23), [4-[[4-(4-Piperidinyl)-piperazin-1-yl]carbonylaminolphenoxyl-acetic acid dihydrochloride] as the compound, how does the IC50 (human platelets) read?
**A.** 67 nM

**Q.** What about the EC50 (Platelet aggregation; Homo sapiens, 10 min) of the same compound?
**A.** 98 nM

**Q.** And the toxic side effects [1]?
**A.** no toxic side effects were observed

**Q.** Which results are given for `O=C(O)CCOC1CCN(C(=O)N2CCN(C3CCNCC3)CC2)CC1` [Example 1(30), N-[[4-(4-Piperidinyl)-piperazin-1-yl]carbonyl]-3-(piperidin-4-yloxy)-propionic acid dihydrochloride]?
**A.** IC50 (human platelets): 210 nM; EC50 (Platelet aggregation; Homo sapiens, 10 min): 640 nM

**Q.** For `O=C(CCN1CCN(C2CCNCC2)CC1)N[C@H]1CC[C@H](C(=O)O)CC1` [Example 1, [4-trans-[3-[4-(4-Piperidinyl)-piperazin-1-yl]propionyl]-amino]cyclohexanecarboxylic acid dihydrochloride], which IC50 (human platelets) is on record?
**A.** 510 nM

**Q.** And the EC50 (Platelet aggregation; Homo sapiens, 10 min)?
**A.** 240 nM

**Q.** With `COC(=O)COc1ccc(C(=O)CN2CCN(C3CCNCC3)CC2)cc1` [Example 2(11), Methyl [4-[[4-(4-piperidinyl)-piperazin-1-yl]acetyl]phenoxyl-acetatetrihydrochloride] as the compound, how does the IC50 (human platelets) read?
**A.** 33000 nM

**Q.** And the EC50 (Platelet aggregation; Homo sapiens, 10 min)?
**A.** 420 nM

**Q.** Which results are given for `CCOC(=O)CCOC1CCN(C(=O)N2CCN(C3CCNCC3)CC2)CC1` [Example 2(15), Ethyl N-[[4-(4-piperidinyl)-piperazin-1-yl]-carbonyl]-3-(piperidin-4-yloxy)-propionate dihydrochloride]?
**A.** IC50 (human platelets): 38000 nM; EC50 (Platelet aggregation; Homo sapiens, 10 min): > 10000 nM

**Q.** What does the source list for `COC(=O)COc1ccc(NC(=O)N2CCN(C3CCNCC3)CC2)cc1` [Example 3(7), Methyl [4-[[4-(4-piperidinyl)-piperazin-1-yl]carbonylamino]phenoxy]acetate dihydrochloride]?
**A.** IC50 (human platelets): 270 nM; EC50 (Platelet aggregation; Homo sapiens, 10 min): 110 nM

**Q.** With `CC(C)(C)OC(=O)COc1ccc(NC(=O)N2CCN(C3CCNCC3)CC2)cc1` [Example 3(11), tert-Butyl [4-[[4-(4-piperidinyl)-piperazin-1-yl]carbonylamino]-phenoxy]acetate dihydrochloride] as the compound, how does the IC50 (human platelets) read?
**A.** 630 nM

**Q.** What about the EC50 (Platelet aggregation; Homo sapiens, 10 min) of the same compound?
**A.** 980 nM

**Q.** What does the source list for `CC(C)COC(=O)COc1ccc(NC(=O)N2CCN(C3CCNCC3)CC2)cc1` [Example 4(7), Isobutyl [4-[[4-(4-piperidinyl)-piperazin-1-yl]carbonylamino]-phenoxy]acetate dihydrochloride]?
**A.** IC50 (human platelets): 18000 nM; EC50 (Platelet aggregation; Homo sapiens, 10 min): 100 nM

**Q.** For `CC(C)(C)COC(=O)COc1ccc(NC(=O)N2CCN(C3CCNCC3)CC2)cc1` [Example 4(8), Neopentyl [4-[[4-(4-piperidinyl)-piperazin-1-yl]carbonylamino]-phenoxy]acetate dihydrochloride], which IC50 (human platelets) is on record?
**A.** 170 nM

**Q.** What about the EC50 (Platelet aggregation; Homo sapiens, 10 min) of the same compound?
**A.** 120 nM

**Q.** What does the source list for `O=C(COc1ccc(NC(=O)N2CCN(C3CCNCC3)CC2)cc1)OC1CCCC1` [Example 4(9), Cyclopentyl [4-[[4-(4-piperidinyl)-piperazin-1-yl]carbonylamino]-phenoxy]acetate dihydrochloride]?
**A.** IC50 (human platelets): 4700 nM; EC50 (Platelet aggregation; Homo sapiens, 10 min): 160 nM

**Q.** What does the source list for `O=C(COc1ccc(NC(=O)N2CCN(C3CCNCC3)CC2)cc1)OC1CCCCCC1` [Example 4(10), Cycloheptyl [4-[[4-(4-piperidinyl)-piperazin-1-yl]carbonylamino]-phenoxy]acetate dihydrochloride]?
**A.** IC50 (human platelets): 590 nM; EC50 (Platelet aggregation; Homo sapiens, 10 min): 91 nM

**Q.** Which results are given for `CCCCOC(=O)COc1ccc(NC(=O)N2CCN(C3CCNCC3)CC2)cc1` [Example 4(11), Butyl [4-[[4-(4-piperidinyl)-piperazin-1-yl]carbonylamino]-phenoxy]acetate dihydrochloride]?
**A.** IC50 (human platelets): 19000 nM; EC50 (Platelet aggregation; Homo sapiens, 10 min): 110 nM

**Q.** With `O=C(COc1ccc(NC(=O)N2CCN(C3CCNCC3)CC2)cc1)OC1CCCCC1` [Example 4(12), Cyclohexyl [4-[[4-(4-piperidinyl)-piperazin-1-yl]carbonylamino]-phenoxy]acetate dihydrochloride] as the compound, how does the EC50 (Platelet aggregation; Homo sapiens, 10 min) read?
**A.** 290 nM

**Q.** For `O=C(CC[C@H]1CC[C@H](NC(=O)N2CCN(C3CCNCC3)CC2)CC1)OC1CCCCC1` [Example 4, Cyclohexyl 3-[4-trans-[[4-(4-piperidinyl)-piperazin-1-yl]carbonylamino]-cyclohexylpropionatedihydrochloride], which IC50 (human platelets) is on record?
**A.** 270 nM

**Q.** And the EC50 (Platelet aggregation; Homo sapiens, 10 min)?
**A.** 360 nM

**Q.** Which IC50 (human platelets) does the source give for `O=C(O)CN1CCC(OCC(=O)N2CCN(C3CCNCC3)CC2)CC1` [Example 22(8), [4-[[[4-(piperidin-4-yl)-piperazin-1-yl]-carbonyl]-methyloxy]-piperidin-1-yl]-acetic acid] here?
**A.** 27 nM

**Q.** What about the EC50 (Platelet aggregation; Homo sapiens, 10 min) of the same compound?
**A.** 100 nM

**Q.** Which IC50 (human platelets) does the source give for `O=C(O)CN1CCC(CCC(=O)N2CCN(C3CCNCC3)CC2)CC1` [Example 24(1), [4-[2-[[4-(Piperidin-4-yl)-piperazin-1-yl]-carbonyl]-ethyl]-piperidin-1-yl]-acetic acid trihydrochloride] here?
**A.** 12 nM

**Q.** What about the EC50 (Platelet aggregation; Homo sapiens, 10 min) of the same compound?
**A.** 94 nM

**Q.** With “N-[4-[[4-(4-Piperidinyl)-piperazin-1-yl]carbonyl]piperi-dinyl]-β-alanine trihydrochloride [Example 1(5)]” as the compound, how does the IC50 (human platelets) read?
**A.** 78 nM

**Q.** And the EC50 (Platelet aggregation)?
**A.** 250 nM
